Structures can show the parent of a compound that is named as a salt.
Legend:
Type in all cases: cell-based
[1] = tested on: Staphylococcus aureus (ATCC number: 25923); assay: Phototoxicity test (photodynamic activity, CFU assay) against gram-positive bacteria; details: for Required concentration in order to achieve a reduction by ≧ 3 log10 steps: S. aureus, 15 min incubation in darkness, then irradiation 12.3 J/cm^2 blue light (Emax 418 nm), CFU/ml 24 h after; for antimicrobial action compared with the starting substance perinaphthenone: from Table 1 (S. aureus and E. coli, sentence does not separate them), reduction of the germ count by 3 log10 steps; for times lower concentration needed to achieve a reduction by 3 log10 steps, compared with perinaphthenone: phototoxicity test, Table 1 (S. aureus and E. coli, sentence does not separate them)
Procedure: (§1) A sample of the bacterial strain Staphylococcus aureus (ATCC number: 25923) or Escherichia coli (ATCC number: 25922) was extracted from a cryogenically frozen culture, isolated on Müller-Hinton agar plates, and cultured under aerobic conditions at 37° C. in an overnight culture. 10 ml Müller-Hinton liquid medium was then inoculated with a smear of the bacterial culture (individual colony) and incubated overnight at 37° C. The thus-obtained bacterial suspension was centrifuged for 15 min at 3000 rpm and the obtained bacterial pellet was resuspended in 10 ml sterile PBS. The optical density of the bacterial suspensions for the phototoxicity tests was OD600nm=0.6, which corresponds to a bacterial count of ˜[…] bacteria per ml. The biochemical analysis and resistance determination of the bacteria were carried out with the VITEK2 system according to the guidelines M100-S14 of the NCCLS (National Committee for Clinical Laboratory Standards guidelines 2004).
(§2) 200 μl of a bacterial suspension (bacterial density: 10^8-10^12/ml) was incubated with 200 μl each of different concentrations of the photosensitizers listed in Table 1 at 37° C. in darkness for 15 minutes. The bacteria were then washed twice with PBS, resuspended in 200 μl PBS, the entire volume was transferred to a 96-well microtiter plate and then irradiated.
(§3) For the sensitization, the UV 236 lamp (emission 380-480 nm, with an emission maximum Emax: 418 nm) from Waldmann Medizintechnik was used and the plates lying on the light source were irradiated from below, in order to prevent scattering through the liquid. The applied light dose was 12.3 J/cm^2. As controls, bacterial suspensions that were irradiated, not irradiated and only incubated with photosensitizer were entrained, and incubated both with and without photosensitizer.
(§4) The CFU assay was then carried out to determine the colony-forming units per ml (CFU). For this, a series of dilutions from 10^−1 to 10^−9 of the corresponding bacterial suspension was produced. 100 μl was then plated onto Müller-Hinton plates and incubated at 37° C. for 24 h. The number of surviving colonies was then determined by counting and plotted on a graph as colony-forming units (CFU) per ml against the respectively used photosensitizer concentration.

[2] = tested on: Escherichia coli (ATCC number: 25922); assay: Phototoxicity test (photodynamic activity, CFU assay) against gram-negative bacteria; details: E. coli; 15 min incubation in darkness, then irradiation 12.3 J/cm^2 blue light (Emax 418 nm); CFU/ml 24 h after
Procedure: as §1, §2, §3, §4

[3] = tested on: S. aureus; assay: Surface disinfection of catheter tubes, cell count after illumination; details: catheter sections with dried S. aureus; 5 min in darkness, 12.3 J/cm^2 blue light (Emax 418 nm) for 30 min
Procedure: 5-cm long catheter sections were filled with 1 ml of a stable S. aureus solution (1 E+12 cfu/ml) and incubated overnight at 37° C. After drying-out of the solution, in each case 2 ml of a solution of PBS which contained a corresponding concentration (0, 1, 10, 50, 80 and 100 μM) of the compounds produced in Examples 2), 4b), 5b), 7) and 10) and 1H-phenalene-1-one was sprayed. After a short exposure time of 5 minutes in darkness, the catheter sections were illuminated with a light dose of 12.3 J/cm^2 with blue light (Emax: 418 nm) for a period of 30 min.
As a control, in each case non-illuminated catheter sections were used, to which the corresponding concentrations (0, 1, 10, 50, 80 and 100 μM) of the compounds produced in Examples 1b)-f) and 1H-phenalene-1-one were applied.
To determine the cell count, the illuminated and non-illuminated catheter sections were filled with 1 ml PBS and ultrasounded. Growth medium was added to the washing solution in different dilutions (10^0 to 10^7) and the solution was smeared onto agar plates. The cell count was performed after 24 h of incubation at 37° C.

| SMILES | Required concentration in order to achieve a reduction by ≧ 3 log10 steps [1] | antimicrobial action compared with the starting substance perinaphthenone [1] | times lower concentration needed to achieve a reduction by 3 log10 steps, compared with perinaphthenone [1] | Required concentration in order to achieve a reduction by ≧ 3 log10 steps [2] | times lower concentration needed to achieve a reduction by 3 log10 steps, compared with perinaphthenone [3] |
| --- | --- | --- | --- | --- | --- |
| NCCOCC1=Cc2cccc3cccc(c23)C1=O [Example 4b, 2-((2-Aminoethoxy)methyl)-1H-phenalene-1-one hydrochloride] | 50 μM | improved antimicrobial action | approximately 10 times | 300 μM | approximately 10 times |
| O=C1C(C[n+]2ccccc2)=Cc2cccc3cccc1c23 [Example 7] | 80 μM | improved antimicrobial action | approximately 10 times | 10 μM | approximately 10 times |
| NCC1=Cc2cccc3cccc(c23)C1=O [Example 2, 2-Aminomethyl-1H-phenalene-1-one] | 1 μM | improved antimicrobial action | approximately 10 times | 50 μM | approximately 10 times |
| CC[N+](CC)(CC)CC1=Cc2cccc3cccc(c23)C1=O [Example 10, 2-((N,N,N-Triethyl)aminomethyl)-1H-phenalene-1-one hydrochloride] | 50 μM for S. aureus; 50 μM for E. coli | improved antimicrobial action | approximately 10 times | 50 μM for S. aureus; 50 μM for E. coli | approximately 10 times |
| O=C1C=Cc2cccc3cccc1c23 [Comparison, perinaphthenone, reference compound] | 200 μM | – | – | 300 μM | – |
| NCCOCCOCC1=Cc2cccc3cccc(c23)C1=O [Example 5b, 2-((2-(2-Aminoethoxy)ethoxy)methyl)-1H-phenalene-1-one hydrochloride] | 50 μM | improved antimicrobial action | approximately 10 times | 80 μM | approximately 10 times |

Reference: patent US9302004B2, “Phenalene-1-one derivatives, method for producing same and use thereof” (TRIOPTOTEC GMBH, priority 2011, dated 2016)
